From PMC11352961, “Peptide dendrimers transfecting CRISPR/Cas9 plasmid DNA: optimization and mechanism” (RSC Chemical Biology, 2024)
Bridge positions count the residues as written; N and C are the ends. Square brackets hold non-standard residues; d marks the D form. Side chains are listed from the residue outwards. Peptide text beside a SMILES is read from it. I, II: the chains in the order shown. * marks the point of attachment. Stearoyl = CCCCCCCCCCCCCCCCCC(=O)*

Columns and labels:
HeLa cells = assay: Cell viability by PrestoBlue assay after transfection, HeLa cells; format: cell-based; conditions: 4 h
HEK293 cells = assay: Cell viability by PrestoBlue assay after transfection, HEK cells; format: cell-based; conditions: 4 h

## CCCCCCCCCCCCCCCCCC(=O)NCCCC[C@@H](NC(=O)[C@@H](CCCCNC(=O)[C@@H](CC(C)C)NC(=O)[C@@H](CCCNC(=N)N)NC(=O)[C@@H](CCCCNC(=O)[C@@H](CC(C)C)NC(=O)[C@@H](CCCNC(=N)N)NC(=O)[C@@H](CCCCNC(=O)[C@@H](CC(C)C)NC(=O)[C@H](N)CCCNC(=N)N)NC(=O)[C@@H](CC(C)C)NC(=O)[C@H](N)CCCNC(=N)N)NC(=O)[C@@H](CC(C)C)NC(=O)[C@@H](CCCNC(=N)N)NC(=O)[C@@H](CCCCNC(=O)[C@@H](CC(C)C)NC(=O)[C@H](N)CCCNC(=N)N)NC(=O)[C@@H](CC(C)C)NC(=O)[C@H](N)CCCNC(=N)N)NC(=O)[C@@H](CC(C)C)NC(=O)[C@@H](CCCNC(=N)N)NC(=O)[C@@H](CCCCNC(=O)[C@@H](CC(C)C)NC(=O)[C@@H](CCCNC(=N)N)NC(=O)[C@@H](CCCCNC(=O)[C@@H](CC(C)C)NC(=O)[C@H](N)CCCNC(=N)N)NC(=O)[C@@H](CC(C)C)NC(=O)[C@H](N)CCCNC(=N)N)NC(=O)[C@@H](CC(C)C)NC(=O)[C@@H](CCCNC(=N)N)NC(=O)[C@@H](CCCCNC(=O)[C@@H](CC(C)C)NC(=O)[C@H](N)CCCNC(=N)N)NC(=O)[C@@H](CC(C)C)NC(=O)[C@H](N)CCCNC(=N)N)C(=O)N[C@H](CS)C(N)=O [Z22] (I: H-[dR][dL][dK]([dL-dR])[dR][dL][dK][dR][dL][dK][dK](Stearoyl)[dC]-NH2 / II: H-[dR][dL][dK]([dL-dR])[dR][dL][dK][dR][dL] / III: H-[dR][dL][dK]([dL-dR])[dR][dL] / IV: H-[dR][dL][dK]([dL-dR])[dR][dL]; amide I:6-IV:C, I:9-II:C, II:6-III:C)
HeLa cells
  % viability HeLa cells: 92 ± 7%
HEK293 cells
  % viability HEK cells: 64 ± 4%

## CC(C)C[C@H](NC(=O)[C@H](CC(C)C)NC(=O)[C@H](CC(C)C)NC(=O)[C@H](CC(C)C)NC(=O)[C@H](CC(C)C)NC(=O)[C@H](CCCCNC(=O)[C@H](CC(C)C)NC(=O)[C@H](CCCCN)NC(=O)[C@H](CCCCNC(=O)[C@H](CC(C)C)NC(=O)[C@H](CCCCN)NC(=O)[C@H](CCCCNC(=O)[C@H](CC(C)C)NC(=O)[C@@H](N)CCCCN)NC(=O)[C@H](CC(C)C)NC(=O)[C@@H](N)CCCCN)NC(=O)[C@H](CC(C)C)NC(=O)[C@H](CCCCN)NC(=O)[C@H](CCCCNC(=O)[C@H](CC(C)C)NC(=O)[C@@H](N)CCCCN)NC(=O)[C@H](CC(C)C)NC(=O)[C@@H](N)CCCCN)NC(=O)[C@H](CC(C)C)NC(=O)[C@H](CCCCN)NC(=O)[C@H](CCCCNC(=O)[C@H](CC(C)C)NC(=O)[C@H](CCCCN)NC(=O)[C@H](CCCCNC(=O)[C@H](CC(C)C)NC(=O)[C@@H](N)CCCCN)NC(=O)[C@H](CC(C)C)NC(=O)[C@@H](N)CCCCN)NC(=O)[C@H](CC(C)C)NC(=O)[C@H](CCCCN)NC(=O)[C@H](CCCCNC(=O)[C@H](CC(C)C)NC(=O)[C@@H](N)CCCCN)NC(=O)[C@H](CC(C)C)NC(=O)[C@@H](N)CCCCN)C(N)=O [Z3] (I: H-KLK([Leu-Lys])KLKKLKLLLLL-NH2 / II: H-KLK([Leu-Lys])KLKKL / III: H-KLK([Leu-Lys])KL / IV: H-KLK([Leu-Lys])KL; amide I:6-IV:C, I:9-II:C, II:6-III:C)
HeLa cells
  % viability HeLa cells: 51 ± 5%
HEK293 cells
  % viability HEK cells: 76 ± 7%

## CCCCCCCCCCCCCCCCCC(=O)NCCCC[C@@H](NC(=O)[C@@H](CCCCNC(=O)[C@@H](CC(C)C)NC(=O)[C@@H](CCCCN)NC(=O)[C@@H](CCCCNC(=O)[C@@H](CC(C)C)NC(=O)[C@@H](CCCCN)NC(=O)[C@@H](CCCCNC(=O)[C@@H](CC(C)C)NC(=O)[C@H](N)CCCCN)NC(=O)[C@@H](CC(C)C)NC(=O)[C@H](N)CCCCN)NC(=O)[C@@H](CC(C)C)NC(=O)[C@@H](CCCCN)NC(=O)[C@@H](CCCCNC(=O)[C@@H](CC(C)C)NC(=O)[C@H](N)CCCCN)NC(=O)[C@@H](CC(C)C)NC(=O)[C@H](N)CCCCN)NC(=O)[C@@H](CC(C)C)NC(=O)[C@@H](CCCCN)NC(=O)[C@@H](CCCCNC(=O)[C@@H](CC(C)C)NC(=O)[C@@H](CCCCN)NC(=O)[C@@H](CCCCNC(=O)[C@@H](CC(C)C)NC(=O)[C@H](N)CCCCN)NC(=O)[C@@H](CC(C)C)NC(=O)[C@H](N)CCCCN)NC(=O)[C@@H](CC(C)C)NC(=O)[C@@H](CCCCN)NC(=O)[C@@H](CCCCNC(=O)[C@@H](CC(C)C)NC(=O)[C@H](N)CCCCN)NC(=O)[C@@H](CC(C)C)NC(=O)[C@H](N)CCCCN)C(=O)N[C@H](C)C(N)=O [Z30] (I: H-[dK][dL][dK]([dL-dK])[dK][dL][dK][dK][dL][dK][dK](Stearoyl)[dA]-NH2 / II: H-[dK][dL][dK]([dL-dK])[dK][dL][dK][dK][dL] / III: H-[dK][dL][dK]([dL-dK])[dK][dL] / IV: H-[dK][dL][dK]([dL-dK])[dK][dL]; amide I:6-IV:C, I:9-II:C, II:6-III:C)
HeLa cells
  % viability HeLa cells: 91 ± 8%
HEK293 cells
  % viability HEK cells: 75 ± 1%

## CCCCCCCCCCCCCCCCCC(=O)NCCCC[C@H](NC(=O)[C@H](CCCCNC(=O)[C@H](CC(C)C)NC(=O)[C@H](CCCCN)NC(=O)[C@H](CCCCNC(=O)[C@H](CC(C)C)NC(=O)[C@H](CCCCN)NC(=O)[C@H](CCCCNC(=O)[C@H](CC(C)C)NC(=O)[C@@H](N)CCCCN)NC(=O)[C@H](CC(C)C)NC(=O)[C@@H](N)CCCCN)NC(=O)[C@H](CC(C)C)NC(=O)[C@H](CCCCN)NC(=O)[C@H](CCCCNC(=O)[C@H](CC(C)C)NC(=O)[C@@H](N)CCCCN)NC(=O)[C@H](CC(C)C)NC(=O)[C@@H](N)CCCCN)NC(=O)[C@H](CC(C)C)NC(=O)[C@H](CCCCN)NC(=O)[C@H](CCCCNC(=O)[C@H](CC(C)C)NC(=O)[C@H](CCCCN)NC(=O)[C@H](CCCCNC(=O)[C@H](CC(C)C)NC(=O)[C@@H](N)CCCCN)NC(=O)[C@H](CC(C)C)NC(=O)[C@@H](N)CCCCN)NC(=O)[C@H](CC(C)C)NC(=O)[C@H](CCCCN)NC(=O)[C@H](CCCCNC(=O)[C@H](CC(C)C)NC(=O)[C@@H](N)CCCCN)NC(=O)[C@H](CC(C)C)NC(=O)[C@@H](N)CCCCN)C(=O)N[C@@H](CS)C(N)=O [Z12] (I: H-KLK([Leu-Lys])KLKKLKK(Stearoyl)C-NH2 / II: H-KLK([Leu-Lys])KLKKL / III: H-KLK([Leu-Lys])KL / IV: H-KLK([Leu-Lys])KL; amide I:6-IV:C, I:9-II:C, II:6-III:C)
HeLa cells
  % viability HeLa cells: 112 ± 10%
HEK293 cells
  % viability HEK cells: 80 ± 5%
